According to US20140120232A1, “ACID TASTE/ACID SMELL-REDUCING AGENT” (T. HASEGAWA CO., LTD., priority 2011, published 2014):

Assay: Sensory evaluation of dressing containing the agent
Conditions: ten panels
Protocol: Sensory evaluation of each drink was carried out by ten panels. […] The piercing aroma characteristic to aldehydes is a characteristic aroma common to every aldehyde and refers to an irritant off-smell giving an image of deteriorated oils and fats, soap, metals, Houttuynia cordata, etc. The judgment of smell was performed by comparing the effects at different concentrations of the acid taste and/or acid smell-reducing agent, and a concentration giving the highest acid taste/acid smell quality was selected.
A separation-type dressing base material (100 g) was prepared by mixing 20 g of edible vinegar, 35 g of vegetable oils and fats, and 45 g of an aqueous solution containing spices and extracts with stirring. To the resulting mixture was added (Z,Z)-4,7-tridecadienal as the acid taste and/or acid smell-reducing agent of the present invention in concentrations shown in the following Table 10 to give dressings containing the agent, followed by sensory evaluation as in Example 1.

**Q.** For CCCCC/C=C\C/C=C\CCC=O [(Z,Z)-4,7-tridecadienal], which “A: number of panels, acid taste/acid smell extreme and cause irritation” value (0.005 ppt) is on record?
**A.** The value was 10.

**Q.** And the “B: number of panels, acid taste/acid smell slightly strong and slightly cause irritation” value (0.005 ppt)?
**A.** Its value is 0.

**Q.** What about the “C: number of panels, acid taste/acid smell slightly unpleasant” value (0.005 ppt) of the same compound?
**A.** Its value is 0.

**Q.** What about the “Flavor judgment: number of panels who judged acid taste/acid smell quality the highest” value (0.005 ppt) of the same compound?
**A.** Its value is 0.

**Q.** What about the “N: number of panels, irritation of acid reduced to give a mild acid taste” value (0.005 ppt) of the same compound?
**A.** The value was 0.

**Q.** And the “X: number of panels, acid taste reduced but piercing odor characteristic to aldehydes unpleasant” value (0.005 ppt)?
**A.** The value was 0.

**Q.** And the “A: number of panels, acid taste/acid smell extreme and cause irritation” value (0.02 ppt)?
**A.** The value was 9.

**Q.** What about the “B: number of panels, acid taste/acid smell slightly strong and slightly cause irritation” value (0.02 ppt) of the same compound?
**A.** Its value is 1.

**Q.** And the “C: number of panels, acid taste/acid smell slightly unpleasant” value (0.02 ppt)?
**A.** Its value is 0.

**Q.** What about the “Flavor judgment: number of panels who judged acid taste/acid smell quality the highest” value (0.02 ppt) of the same compound?
**A.** The value was 0.

**Q.** And the “N: number of panels, irritation of acid reduced to give a mild acid taste” value (0.02 ppt)?
**A.** Its value is 0.

**Q.** What about the “X: number of panels, acid taste reduced but piercing odor characteristic to aldehydes unpleasant” value (0.02 ppt) of the same compound?
**A.** The value was 0.

**Q.** What about the “A: number of panels, acid taste/acid smell extreme and cause irritation” value (0.1 ppt) of the same compound?
**A.** Its value is 6.

**Q.** What about the “B: number of panels, acid taste/acid smell slightly strong and slightly cause irritation” value (0.1 ppt) of the same compound?
**A.** The value was 4.

**Q.** What about the “C: number of panels, acid taste/acid smell slightly unpleasant” value (0.1 ppt) of the same compound?
**A.** The value was 0.

**Q.** And the “Flavor judgment: number of panels who judged acid taste/acid smell quality the highest” value (0.1 ppt)?
**A.** Its value is 0.

**Q.** And the “N: number of panels, irritation of acid reduced to give a mild acid taste” value (0.1 ppt)?
**A.** Its value is 0.

**Q.** And the “X: number of panels, acid taste reduced but piercing odor characteristic to aldehydes unpleasant” value (0.1 ppt)?
**A.** Its value is 0.

**Q.** And the “A: number of panels, acid taste/acid smell extreme and cause irritation” value (0.2 ppt)?
**A.** The value was 4.

**Q.** And the “B: number of panels, acid taste/acid smell slightly strong and slightly cause irritation” value (0.2 ppt)?
**A.** Its value is 4.

**Q.** And the “C: number of panels, acid taste/acid smell slightly unpleasant” value (0.2 ppt)?
**A.** Its value is 2.

**Q.** And the “Flavor judgment: number of panels who judged acid taste/acid smell quality the highest” value (0.2 ppt)?
**A.** The value was 0.

**Q.** And the “N: number of panels, irritation of acid reduced to give a mild acid taste” value (0.2 ppt)?
**A.** The value was 0.

**Q.** What about the “X: number of panels, acid taste reduced but piercing odor characteristic to aldehydes unpleasant” value (0.2 ppt) of the same compound?
**A.** Its value is 0.

**Q.** What about the “A: number of panels, acid taste/acid smell extreme and cause irritation” value (0.5 ppt) of the same compound?
**A.** Its value is 1.

**Q.** And the “B: number of panels, acid taste/acid smell slightly strong and slightly cause irritation” value (0.5 ppt)?
**A.** Its value is 2.

**Q.** And the “C: number of panels, acid taste/acid smell slightly unpleasant” value (0.5 ppt)?
**A.** Its value is 2.

**Q.** And the “Flavor judgment: number of panels who judged acid taste/acid smell quality the highest” value (0.5 ppt)?
**A.** Its value is 1.

**Q.** And the “N: number of panels, irritation of acid reduced to give a mild acid taste” value (0.5 ppt)?
**A.** The value was 5.

**Q.** What about the “X: number of panels, acid taste reduced but piercing odor characteristic to aldehydes unpleasant” value (0.5 ppt) of the same compound?
**A.** Its value is 0.

**Q.** And the “A: number of panels, acid taste/acid smell extreme and cause irritation” value (1 ppb)?
**A.** Its value is 0.

**Q.** And the “B: number of panels, acid taste/acid smell slightly strong and slightly cause irritation” value (1 ppb)?
**A.** The value was 0.

**Q.** And the “C: number of panels, acid taste/acid smell slightly unpleasant” value (1 ppb)?
**A.** The value was 3.

**Q.** What about the “Flavor judgment: number of panels who judged acid taste/acid smell quality the highest” value (1 ppb) of the same compound?
**A.** Its value is 0.

**Q.** And the “N: number of panels, irritation of acid reduced to give a mild acid taste” value (1 ppb)?
**A.** The value was 3.

**Q.** And the “X: number of panels, acid taste reduced but piercing odor characteristic to aldehydes unpleasant” value (1 ppb)?
**A.** Its value is 4.

**Q.** What about the “A: number of panels, acid taste/acid smell extreme and cause irritation” value (1 ppt) of the same compound?
**A.** The value was 0.

**Q.** What about the “B: number of panels, acid taste/acid smell slightly strong and slightly cause irritation” value (1 ppt) of the same compound?
**A.** Its value is 1.

**Q.** And the “C: number of panels, acid taste/acid smell slightly unpleasant” value (1 ppt)?
**A.** Its value is 3.

**Q.** And the “Flavor judgment: number of panels who judged acid taste/acid smell quality the highest” value (1 ppt)?
**A.** Its value is 1.

**Q.** What about the “N: number of panels, irritation of acid reduced to give a mild acid taste” value (1 ppt) of the same compound?
**A.** Its value is 6.

**Q.** And the “X: number of panels, acid taste reduced but piercing odor characteristic to aldehydes unpleasant” value (1 ppt)?
**A.** The value was 0.

**Q.** And the “A: number of panels, acid taste/acid smell extreme and cause irritation” value (5 ppt)?
**A.** The value was 0.

**Q.** And the “B: number of panels, acid taste/acid smell slightly strong and slightly cause irritation” value (5 ppt)?
**A.** The value was 0.

**Q.** And the “C: number of panels, acid taste/acid smell slightly unpleasant” value (5 ppt)?
**A.** The value was 3.

**Q.** And the “Flavor judgment: number of panels who judged acid taste/acid smell quality the highest” value (5 ppt)?
**A.** The value was 4.

**Q.** What about the “N: number of panels, irritation of acid reduced to give a mild acid taste” value (5 ppt) of the same compound?
**A.** The value was 7.

**Q.** And the “X: number of panels, acid taste reduced but piercing odor characteristic to aldehydes unpleasant” value (5 ppt)?
**A.** The value was 0.

**Q.** What about the “A: number of panels, acid taste/acid smell extreme and cause irritation” value (10 ppb) of the same compound?
**A.** Its value is 0.

**Q.** What about the “B: number of panels, acid taste/acid smell slightly strong and slightly cause irritation” value (10 ppb) of the same compound?
**A.** The value was 0.

**Q.** And the “C: number of panels, acid taste/acid smell slightly unpleasant” value (10 ppb)?
**A.** Its value is 1.

**Q.** And the “Flavor judgment: number of panels who judged acid taste/acid smell quality the highest” value (10 ppb)?
**A.** Its value is 0.

**Q.** And the “N: number of panels, irritation of acid reduced to give a mild acid taste” value (10 ppb)?
**A.** The value was 2.

**Q.** What about the “X: number of panels, acid taste reduced but piercing odor characteristic to aldehydes unpleasant” value (10 ppb) of the same compound?
**A.** Its value is 7.

**Q.** And the “A: number of panels, acid taste/acid smell extreme and cause irritation” value (20 ppt)?
**A.** Its value is 0.

**Q.** And the “B: number of panels, acid taste/acid smell slightly strong and slightly cause irritation” value (20 ppt)?
**A.** The value was 0.

**Q.** And the “C: number of panels, acid taste/acid smell slightly unpleasant” value (20 ppt)?
**A.** Its value is 3.

**Q.** And the “Flavor judgment: number of panels who judged acid taste/acid smell quality the highest” value (20 ppt)?
**A.** The value was 4.

**Q.** What about the “N: number of panels, irritation of acid reduced to give a mild acid taste” value (20 ppt) of the same compound?
**A.** Its value is 7.

**Q.** What about the “X: number of panels, acid taste reduced but piercing odor characteristic to aldehydes unpleasant” value (20 ppt) of the same compound?
**A.** Its value is 0.

**Q.** And the “A: number of panels, acid taste/acid smell extreme and cause irritation” value (50 ppb)?
**A.** The value was 0.

**Q.** What about the “B: number of panels, acid taste/acid smell slightly strong and slightly cause irritation” value (50 ppb) of the same compound?
**A.** Its value is 0.

**Q.** What about the “C: number of panels, acid taste/acid smell slightly unpleasant” value (50 ppb) of the same compound?
**A.** The value was 0.

**Q.** What about the “Flavor judgment: number of panels who judged acid taste/acid smell quality the highest” value (50 ppb) of the same compound?
**A.** The value was 0.

**Q.** What about the “N: number of panels, irritation of acid reduced to give a mild acid taste” value (50 ppb) of the same compound?
**A.** The value was 2.

**Q.** And the “X: number of panels, acid taste reduced but piercing odor characteristic to aldehydes unpleasant” value (50 ppb)?
**A.** Its value is 8.

**Q.** What about the “A: number of panels, acid taste/acid smell extreme and cause irritation” value (100 ppt) of the same compound?
**A.** The value was 0.

**Q.** And the “B: number of panels, acid taste/acid smell slightly strong and slightly cause irritation” value (100 ppt)?
**A.** The value was 1.

**Q.** And the “C: number of panels, acid taste/acid smell slightly unpleasant” value (100 ppt)?
**A.** The value was 3.

**Q.** And the “Flavor judgment: number of panels who judged acid taste/acid smell quality the highest” value (100 ppt)?
**A.** The value was 0.

**Q.** And the “N: number of panels, irritation of acid reduced to give a mild acid taste” value (100 ppt)?
**A.** Its value is 4.

**Q.** What about the “X: number of panels, acid taste reduced but piercing odor characteristic to aldehydes unpleasant” value (100 ppt) of the same compound?
**A.** Its value is 2.

**Q.** And the “A: number of panels, acid taste/acid smell extreme and cause irritation” value (500 ppt)?
**A.** The value was 0.

**Q.** What about the “B: number of panels, acid taste/acid smell slightly strong and slightly cause irritation” value (500 ppt) of the same compound?
**A.** The value was 0.

**Q.** And the “C: number of panels, acid taste/acid smell slightly unpleasant” value (500 ppt)?
**A.** The value was 4.

**Q.** What about the “Flavor judgment: number of panels who judged acid taste/acid smell quality the highest” value (500 ppt) of the same compound?
**A.** The value was 0.

**Q.** What about the “N: number of panels, irritation of acid reduced to give a mild acid taste” value (500 ppt) of the same compound?
**A.** Its value is 4.

**Q.** What about the “X: number of panels, acid taste reduced but piercing odor characteristic to aldehydes unpleasant” value (500 ppt) of the same compound?
**A.** Its value is 2.
